Assay in all cases: ≥ marks a high value that may be exact or a test limit, other limits are often not marked, values filed in µg/mL are converted to µM
The test system of test [1] is Candida albicans NCYC 1467.
In test [2] the test system is Staphylococcus aureus NCTC 10788.
Test [3] relates to Escherichia coli NCTC 10418.
Test [4] deals with Staphylococcus aureus ATCC 12493.
Test [5] deals with Pseudomonas aeruginosa ATCC 27853.
Test [6] deals with Klebsiella pneumoniae ATCC 13883.
The test system of test [7] is Klebsiella pneumoniae KpC+001825971.
The subject of test [8] is Escherichia coli ATCC 25922.
The subject of test [9] is Escherichia coli KpC+001812446.
The subject of test [10] is Staphylococcus aureus ATCC 25923.
Test [11] relates to Trichoderma virens KCTC 16924.
In test [12] the test system is Candida albicans CCARM 14004.
For test [13], the system named is Colletotrichum gloeosporioides KCTC 6169.
In test [14] the test system is Candida albicans KCTC 7270.
The subject of test [15] is Candida parapsilosis CCARM 14016.
For test [16], the system named is Fusarium solani KCTC 6326.
Test [17] deals with Candida albicans CCARM 14020.
The subject of test [18] is Fusarium verticillioides KCTC 6149.
In test [19] the test system is Candida albicans CCARM 14001.
Test [20] relates to Fusarium graminearum KCTC 16656.
Test [21] concerns Candida albicans CCARM 14007.
The test system of test [22] is Aspergillus flavus KCTC 6905.
Test [23] deals with Trichophyton rubrum KCTC 6345.
The test system of test [24] is Fusarium oxysporum KCTC 16909.
In test [25] the test system is Trichoderma viride KCTC 16992.
In test [26] the test system is Candida krusei CCARM 14017.
Test [27] relates to Escherichia coli KCTC 1682.
Test [28] concerns Enterococcus faecium.
Test [29] has as its system Pseudomonas aeruginosa KCTC 1637.
Test [30] deals with Bacillus subtilis KCTC 3068.
In test [31] the test system is Salmonella typhimurium KCTC 1926.
In test [32] the test system is Staphylococcus epidermidis KCTC 1917.
Test [33] concerns Staphylococcus aureus.
Test [34] has as its system Staphylococcus aureus KCTC 1621.
Test [35] concerns Escherichia coli C600.
The subject of test [36] is Pseudomonas aeruginosa PAO1.
The subject of test [37] is Staphylococcus aureus 209P.
The subject of test [38] is Escherichia coli BL21(DE3).

Values after ≈ are worked out from the molar mass of the structure shown. Values joined by “and” are separate entries in the source; they are usually repeats but may differ in a detail not shown here. Equal entries are not always repeated. Some results are limits rather than exact numbers.

By MIC is commonly meant the least concentration at which growth counts as inhibited. Low readings indicate greater potency, high ones weaker potency.

Consider `CC[C@H](C)[C@@H]1NC(=O)[C@H](CO)NC(=O)[C@H](CCCCN)NC(=O)[C@H]([C@@H](C)O)NC(=O)[C@H](Cc2c[nH]c3ccccc23)NC(=O)[C@@H](NC(=O)CNC(=O)[C@H](CCCN=C(N)N)NC(=O)[C@H](CC(C)C)NC(=O)[C@H](C)N)CSSC[C@@H](C(=O)N2CCC[C@H]2C(N)=O)NC(=O)[C@@H]2CCCN2C(=O)[C@H](CCCCN)NC(=O)[C@@H]2CCCN2C(=O)[C@@H]2CCCN2C1=O` [ALRGCWTKSIPPKPCP], for which the MIC in test [1] was not below 512 µM; in test [2], not below 128 µM; in test [3] it was not below 128 µM; in test [4], not below 512 µM; in test [5], more than 512 µM.

Consider `CC[C@H](C)[C@H](NC(=O)[C@H](CCCCN)NC(=O)[C@H](CCCCN)NC(=O)[C@H](CC(C)C)NC(=O)[C@H](CO)NC(=O)CNC(=O)[C@H](CO)NC(=O)CNC(=O)[C@H](CO)NC(=O)CNC(=O)[C@H](CO)NC(=O)CN)C(=O)N[C@@H](Cc1ccccc1)C(=O)N[C@@H](CCCCN)C(=O)N[C@@H](CCCCN)C(=O)N1CCC[C@H]1C(=O)N[C@@H](CCSC)C(=O)N[C@H](C(=O)N[C@H](C(=O)NCC(=O)N[C@H](C(=O)N[C@H](C(=O)N[C@H](C(=O)N1CCC[C@H]1C(=O)N[C@@H](Cc1ccccc1)C(N)=O)[C@@H](C)CC)[C@@H](C)O)C(C)C)[C@@H](C)CC)C(C)C` [GSGSGSGSLKKIFKKPMVIGVTIPF], for which the MIC was determined as 0.789 µM (≈ 2 µg/mL) in [6]; 6.31 µM (≈ 16 µg/mL) in test [7]; 0.789 µM (≈ 2 µg/mL) in test [8]; 0.789 µM (≈ 2 µg/mL) in test [9]; 25.2 µM (≈ 64 µg/mL) in test [10].

In the case of `NCCCC[C@H](NC(=O)[C@H](CCCCN)NC(=O)[C@H](Cc1cnc[nH]1)NC(=O)[C@H](CCCCN)NC(=O)[C@H](CCCCN)NC(=O)[C@H](Cc1cnc[nH]1)NC(=O)[C@H](CCCCN)NC(=O)[C@H](CCCCN)NC(=O)[C@H](Cc1cnc[nH]1)NC(=O)[C@H](CCCCN)NC(=O)[C@H](CCCCN)NC(=O)[C@@H](N)Cc1cnc[nH]1)C(N)=O` [HKKHKKHKKHKK], the minimum inhibitory concentration (MIC) is 16 µM (≈ 25.5 µg/mL) in test [11]; not below 32 µM in test [12]; 2 µM (≈ 3.18 µg/mL) in test [13]; not below 32 µM in test [14]; not below 32 µM in test [15]; 4 µM (≈ 6.36 µg/mL) in [16]. Also, the MIC was not below 32 µM in test [17]; 4 µM (≈ 6.36 µg/mL) in test [18]; not below 32 µM in test [19]; 16 µM (≈ 25.5 µg/mL) in test [20]; not below 32 µM in [21]; 8 µM (≈ 12.7 µg/mL) in test [22]. The minimal inhibitory concentration (MIC) in test [23] was determined as 16 µM (≈ 25.5 µg/mL); in test [24] it was 4 µM (≈ 6.36 µg/mL); in [25] it was 4 µM (≈ 6.36 µg/mL); in [26], 4 µM (≈ 6.36 µg/mL).

`NCCCC[C@H](NC(=O)[C@H](CCCCN)NC(=O)[C@@H](N)Cc1cnc[nH]1)C(N)=O` [HKK]: the MIC in test [11] is not below 512 µM; in test [12], not below 1020 µM; in test [13], not below 1020 µM; in [14], not below 1020 µM; in test [15], not below 1020 µM; in [16], not below 256 µM. Also, the MIC is not below 1020 µM in [17]; not below 256 µM in test [18]; not below 1020 µM in test [19]; not below 512 µM in [20]; not below 1020 µM in test [21]; not below 256 µM in test [22]. Also, the MIC in [23] was not below 512 µM; in [24] it was not below 256 µM; in test [25], not below 256 µM; in test [26], not below 512 µM.

Regarding `NCCCC[C@H](NC(=O)[C@H](CCCCN)NC(=O)[C@H](Cc1ccccc1)NC(=O)[C@@H]1CCCN1C(=O)[C@H](Cc1c[nH]c2ccccc12)NC(=O)[C@H](Cc1c[nH]c2ccccc12)NC(=O)[C@H](Cc1c[nH]c2ccccc12)NC(=O)[C@@H]1CCCN1C(=O)[C@H](Cc1ccccc1)NC(=O)[C@H](CCCCN)NC(=O)[C@@H](N)CCCCN)C(=O)O` [KKFPWWWPFKK], the MIC in test [27] came out at 5.07 µM (≈ 8 µg/mL); in test [28], 5.07 µM (≈ 8 µg/mL); in [29] it was 5.07 µM (≈ 8 µg/mL); in test [30], 1.27 µM (≈ 2 µg/mL); in [31], 5.07 µM (≈ 8 µg/mL); in test [32], 0.634 µM (≈ 1 µg/mL). The minimal inhibitory concentration (MIC) in test [33] was found to be 3.58 µM (≈ 5.66 µg/mL); in test [34], 2.54 µM (≈ 4 µg/mL).

As to `CC(C)[C@@H]1NC(=O)[C@H](CCCN=C(N)N)NC(=O)[C@H](Cc2ccccc2)NC(=O)[C@@H](NC(=O)[C@H](Cc2c[nH]c3ccccc23)NC(=O)[C@@H](N)CCCCN)CSSC[C@@H](C(=O)N[C@@H](CCCN=C(N)N)C(=O)O)NC(=O)[C@H](CCCN=C(N)N)NC(=O)[C@H](CCCN=C(N)N)NC(=O)[C@H](Cc2ccc(O)cc2)NC(=O)[C@@H]2CSSC[C@H](NC1=O)C(=O)N[C@@H](Cc1ccc(O)cc1)C(=O)N[C@@H](CCCN=C(N)N)C(=O)NCC(=O)N[C@@H](CCCN=C(N)N)C(=O)N2` [KWCFRVCYRGRCYRRCR], the MIC in [35] is 1.56 µM (≈ 3.6 µg/mL); in test [36] it was 6.25 µM (≈ 14.4 µg/mL); in test [37], 1.56 µM (≈ 3.6 µg/mL).

For `CC[C@H](C)[C@H](NC(=O)[C@H](CC(C)C)NC(=O)[C@H](CCCN=C(N)N)NC(=O)[C@@H](N)CCCN=C(N)N)C(=O)N[C@@H](CCCN=C(N)N)C(=O)N[C@@H](CC(C)C)C(=O)N[C@@H](Cc1c[nH]c2ccccc12)C(=O)N[C@@H](CC(C)C)C(=O)N[C@@H](CCCN=C(N)N)C(=O)N[C@@H](CC(C)C)C(=O)N[C@@H](CC(C)C)C(=O)N[C@@H](CCCN=C(N)N)C(N)=O` [RRLIRLWLRLLR], the MIC is 4 µM (≈ 6.65 µg/mL) in test [6]; 8 µM and 4 µM in test [38].

Values taken from DBAASP.
